Laboratory results from patent US20250313574A1, “SIALIC ACID DERIVATIVES AND METHODS OF USING SAME” (EISAI R&D MANAGEMENT CO., LTD., priority 2022, published 2025).

Assays:
[1] = biological target: Recombinant human CD33 protein (Homo sapiens (Human), UniProt P20138); assay: CD33 competitive binding assay for HTS drug screen (fluorescent multivalent sialic acid probe)
In short: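 Recombinant human CD33, coated overnight at 4° C from 10 μg/ml in pH 5.5 acetate, was preincubated briefly with compound. It was then exposed to a multivalent neutravidin/FITC/sialic acid analog A-375 probe (final 5 μM neutravidin, 15 μM A-375, 5 μM FITC) for 30 min at room temperature. After washing, bound FITC fluorescence was read.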

[2] = biological target: Recombinant Human Siglec-3/CD33 protein (His-CD33) (Homo sapiens (Human), UniProt P20138); assay: Differential scanning fluorimetry (DSF) thermal shift assay; assay type: binding
[3] = thermal melt shift of 0.5 μM CD33 protein with 50 μM compound
[4] = difference in thermal melt of CD33 protein (0.5 μM) with 50 μM compound

Sequence of Recombinant Human Siglec-3/CD33 protein (His-CD33) (P20138 18-259): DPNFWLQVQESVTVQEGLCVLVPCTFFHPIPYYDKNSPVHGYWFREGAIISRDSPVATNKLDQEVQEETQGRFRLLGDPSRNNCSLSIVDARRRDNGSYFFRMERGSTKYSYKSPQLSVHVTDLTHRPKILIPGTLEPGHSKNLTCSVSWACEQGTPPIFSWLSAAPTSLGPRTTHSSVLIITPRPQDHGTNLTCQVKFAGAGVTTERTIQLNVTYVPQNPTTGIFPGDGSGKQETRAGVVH
Sequence of Recombinant human CD33 protein (P20138 18-259): as above

Structure (SMILES)	EC50 [1]	DSF (dTmD) [2, 3]	DSF (dTmD) [2, 4]
CC(=O)N[C@H]1[C@H]([C@H](O)[C@H](O)CNC(=O)c2cc(C)c(O)c(C)c2)O[C@@](CCN2CCOC[C@@]23CCN(C(=S)NC2CC2)C3)(C(=O)O)C[C@@H]1O [A-058]	1380 nM	5.0	
CC(=O)N[C@H]1[C@H]([C@H](O)[C@H](O)CNC(=O)c2cc(C)c(O)c(C)c2)O[C@@](CC(O)[C@@H](O)c2cccc(NC(=O)CC(C)(C)C)c2)(C(=O)O)C[C@@H]1O (some centres unmarked) [A-304]	4700 nM		3.9 °C
CC(=O)N[C@H]1[C@H]([C@H](O)[C@H](O)CNC(=O)c2cc(C)c(O)c(C)c2)O[C@@](CCN2CCOC[C@@]23CCN(C(=O)C=C(C)C)C3)(C(=O)O)C[C@@H]1O [A-078]	115 nM	9.4	
Cc1cc(C(=O)NC[C@@H](O)[C@@H](O)[C@H]2C[C@@H](O)C[C@](CCN3CCOC[C@@]34CCN(C(=O)OC(C)(C)C)C4)(C(=O)O)O2)cc(C)c1O [A-202]	311 nM		5.46 °C
Cc1cc(C(=O)NC[C@@H](O)[C@@H](O)[C@@H]2O[C@@](C/C=C/c3cccc(CNC(=O)c4ccn(-c5ccccn5)n4)c3)(C(=O)O)C[C@H](O)[C@H]2NC(=O)Cn2cc(C3CCCCC3)nn2)cc(C)c1O [A-275]	8630 nM		7.0 °C
CC(=O)N[C@H]1[C@H]([C@H](O)[C@H](O)CNC(=O)c2cc(C)c(O)c(C)c2)O[C@@](C/C=C/c2cccc(CNC(=O)C3CCCOC3)c2)(C(=O)O)C[C@@H]1O (some centres unmarked) [A-293]	7940 nM		4.2 °C
CC(=O)N[C@H]1[C@H]([C@H](O)[C@H](O)CNC(=O)c2cc(C)c(O)c(C)c2)O[C@@](CCN2CCOC[C@@]23CCN(C(=O)N(C)Cc2ccccc2)C3)(C(=O)O)C[C@@H]1O [A-063]	323 nM	6.3	
CC(=O)N[C@H]1[C@H]([C@H](O)[C@H](O)CNC(=O)c2cc(C)c(O)c(C)c2)O[C@@](CCN2CCCC[C@]23CN(C(=O)OC(C)(C)C)C[C@@H]3CO)(C(=O)O)C[C@@H]1O [A-028]	159 nM	8.1	
C=C[C@@H]1CN(C(=O)OC(C)(C)C)C[C@]1(C)NCC[C@]1(C(=O)O)C[C@H](O)[C@@H](NC(C)=O)[C@H]([C@H](O)[C@H](O)CNC(=O)c2cc(C)c(O)c(C)c2)O1 [A-035]	413 nM	7.4	
CC(=O)N[C@H]1[C@H]([C@H](O)[C@H](O)CNC(=O)c2nc(C)oc2C)O[C@@](CCN2CCOC[C@@]23CCN(C(=O)OC(C)(C)C)C3)(C(=O)O)C[C@@H]1O [A-140]	350 nM	7.5	
Cc1cc(C(=O)NC[C@@H](O)[C@@H](O)[C@@H]2O[C@@](CC3OC(C)(C)O[C@H]3c3cccc(CNC(=O)OC(C)(C)C)c3)(C(=O)O)C[C@H](O)[C@H]2NC(=O)Cn2cc(C3CCCCC3)nn2)cc(C)c1O (some centres unmarked) [A-301]	5260 nM		3.5 °C
CC(=O)N[C@H]1[C@H]([C@H](O)[C@H](O)CNC(=O)c2cc(C)oc2C(F)(F)F)O[C@@](CCN2CCOC[C@@]23CCN(C(=O)OC(C)(C)C)C3)(C(=O)O)C[C@@H]1O [A-160]	680 nM	8.0	
C=CC[C@]1(NCC[C@]2(C(=O)O)C[C@H](O)[C@@H](NC(C)=O)[C@H]([C@H](O)[C@H](O)CNC(=O)c3cc(C)c(O)c(C)c3)O2)CCN(C(=O)OC(C)(C)C)C1 [A-033]	1610 nM	6.1	
CC(=O)N[C@H]1[C@H]([C@H](O)[C@H](O)CNC(=O)c2cc(C)c(O)c(C)c2)O[C@@](C/C=C/c2cccc(CNC(=O)c3ccc4[nH]c5c(c4c3)CCC(=O)N5C)c2)(C(=O)O)C[C@@H]1O [A-254]	193 nM		9.2 °C
COC(=O)[C@@]1(CCN2CCOC[C@@]23CCN(C(=O)OC(C)(C)C)C3)CCC[C@H](C[C@H](O)CNC(=O)c2cc(C)c3[nH]ccc3c2)O1 [A-207]	3750 nM		5.0 °C
CC(=O)N[C@H]1[C@H]([C@H](O)[C@H](O)CNC(=O)c2cc(C)c(O)c(C)c2)O[C@@](CCN2CCOC[C@@]23CCN(C(=O)NC2CCCCC2)C3)(C(=O)O)C[C@@H]1O [A-045]	19 nM	12.6	
CC(=O)N[C@H]1[C@H]([C@H](O)[C@H](O)CNC(=O)c2cccc(Br)c2)O[C@@](CCN2CCOC[C@@]23CCN(C(=O)OC(C)(C)C)C3)(C(=O)O)C[C@@H]1O [A-116]	42 nM	12.4	

Structure (SMILES)	EC50 [1]	DSF (dTmD) [2, 3]	DSF (dTmD) [2, 4]
CC(=O)N[C@H]1[C@H]([C@H](O)[C@H](O)CNC(=O)c2cc(C)c(O)c(C)c2)O[C@@](CCN2CCOC[C@@]23CCN(C(=O)C2(c4ccccc4)CC2)C3)(C(=O)O)C[C@@H]1O [A-098]	685 nM	6.9	
CC(=O)N[C@H]1[C@H]([C@H](O)[C@H](O)CNC(=O)c2cc(C)c(O)c(C)c2)O[C@@](CCN2CCNC[C@]23CCN(C(=O)OC(C)(C)C)C3)(C(=O)O)C[C@@H]1O [A-013]	35 nM	11.4	
CC(=O)N[C@H]1[C@H]([C@H](O)[C@H](O)CNC(=O)c2cc(C)c(O)c(C)c2)O[C@@](C/C=C/c2cccc(CNC(=O)c3cccc(NCc4nc(C)cs4)c3)c2)(C(=O)O)C[C@@H]1O [A-245]	9460 nM		1.2 °C
CC(=O)N[C@H]1[C@H]([C@H](O)[C@H](O)CNC(=O)c2ccc3[nH]cnc3c2)O[C@@](CCN2CCOC[C@@]23CCN(C(=O)OC(C)(C)C)C3)(C(=O)O)C[C@@H]1O [A-135]	101 nM	9.6	
CC(=O)N[C@H]1[C@H]([C@H](O)[C@H](O)CNC(=O)c2cc(C)c(O)c(C)c2)O[C@@](CCN2CCOC[C@@]23CCN(C(=O)C2CC2)C3)(C(=O)O)C[C@@H]1O [A-096]	454 nM	7.6	
CC(=O)N[C@H]1[C@H]([C@H](O)[C@H](O)CNC(=O)c2cc(C)c(O)c(C)c2)O[C@@](CCN2CCOC[C@@]23CCN(C(=O)N(C)c2ccccc2)C3)(C(=O)O)C[C@@H]1O [A-059]	60 nM	9.3	
CC(=O)N[C@H]1[C@H]([C@H](O)[C@H](O)CNC(=O)c2cc(C)c(O)c(C)c2)O[C@@](C/C=C/c2ccccc2CNC(=O)OC(C)(C)C)(C(=O)O)C[C@@H]1O [A-288]	2680 nM		5.3 °C
CC(=O)N[C@H]1[C@H]([C@H](O)[C@H](O)CNC(=O)c2cc(C)c(O)c(C)c2)O[C@@](C/C=C/c2cccc(CNC(=O)C3CCC[C@H](Nc4ncccn4)C3)c2)(C(=O)O)C[C@@H]1O (some centres unmarked) [A-256]	2170 nM		5.1 °C
CC(=O)N[C@H]1[C@H]([C@H](O)[C@H](O)CNC(=O)c2ccc(F)c(Br)c2)O[C@@](CCN2CCOC[C@@]23CCN(C(=O)OC(C)(C)C)C3)(C(=O)O)C[C@@H]1O [A-132]	51 nM	12.4	
CC(=O)N[C@H]1[C@H]([C@H](O)[C@H](O)CNC(=O)c2cc(-c3csc(C)n3)on2)O[C@@](CCN2CCOC[C@@]23CCN(C(=O)OC(C)(C)C)C3)(C(=O)O)C[C@@H]1O [A-179]	217 nM	7.7	
CC(=O)N[C@H]1[C@H]([C@H](O)[C@H](O)CNC(=O)c2cc(C)c(O)c(C)c2)O[C@@](CCNC2(C)CCN(C(=O)OC(C)(C)C)C2)(C(=O)O)C[C@@H]1O (some centres unmarked) [A-026]	830 nM	9.2	
CC(=O)N[C@H]1[C@H]([C@H](O)[C@H](O)CNC(=O)c2c[nH]c(C)n2)O[C@@](CCN2CCOC[C@@]23CCN(C(=O)OC(C)(C)C)C3)(C(=O)O)C[C@@H]1O [A-139]	610 nM	6.2	
CC(=O)N[C@H]1[C@H]([C@H](O)[C@H](O)CNC(=O)c2ccc(N3CCN(C)CC3)cc2)O[C@@](CCN2CCOC[C@@]23CCN(C(=O)OC(C)(C)C)C3)(C(=O)O)C[C@@H]1O [A-143]	334 nM	7.8	
CC(=O)N[C@H]1[C@H]([C@H](O)[C@H](O)CNC(=O)c2cc(C)c(O)c(C)c2)O[C@@](C[C@H]2COC[C@@]3(CCN(C(=O)OC(C)(C)C)C3)N2)(C(=O)O)C[C@@H]1O [A-227]	12 nM		14.6 °C
CC(=O)N[C@H]1[C@H]([C@H](O)[C@H](O)CNC(=O)c2cc(C)c(O)c(C)c2)O[C@@](CCN2CCOC[C@@]23CCN(c2cc(C4CC4)ccn2)C3)(C(=O)O)C[C@@H]1O [A-036]	16 nM	12.5	
CC(=O)N[C@H]1[C@H]([C@H](O)[C@H](O)CNC(=O)c2cc(C)c(O)c(C)c2)O[C@@](CC2OC(C)(C)O[C@H]2c2ccc(C)c(N3CCCC3=O)c2)(C(=O)O)C[C@@H]1O (some centres unmarked) [A-319]	4220 nM		2.8 °C
Cc1cc2cc(C)c1OCCCOC[C@H](NC(=O)C1CCCOC1)COC/C=C/C[C@]1(C(=O)O)C[C@H](O)[C@@H](NC(=O)Cn3cc(C4CCCCC4)nn3)[C@@H](O1)[C@H](O)[C@H](O)CNC2=O (some centres unmarked) [A-335]	601 nM		6.4 °C
